Entries after “also recorded” stand apart in the source; their conditions may differ.
Assays:
[1] = test system: NMDA receptor (cortical neurons); assay: Patch-clamp recording of NMDA-evoked current in cortical neurons; format: cell-based, rat (Sprague-Dawley)
[2] = Development of tolerance to systemic effects of NTG in humans; format: in vivo, human
Text: Therefore, it is advantageous to induce NTG tolerance by gradually increasing dosage, thus increasing the neuronal protective effect.
To illustrate the development of systemic tolerance, a human patient could be made tolerant by intravenous administration of NTG within 18-24 hr of continuous infusion (see for example, J. E. Shaffer, B. -A. Han, W. H. Chern, and F. W. Lee, J. Pharmacol. Exper. Therap., 1992;260:286-293; D. C. May, J. J. Popma, Wh. H. Black, S. Scahaffer, H. R. Lee, B. D. Levine, and L. D. Hillis, New Engl. J. Med. 1987;317:805-809; C. M. Newman, J. B. Warren, G. W. Taylor, A. R. Boobis, and D. S. Davis, Br. J. Pharmacol. 1990;99:825-829). Oral, nasal spray, or sublingual NTG could also be used to induce systemic tolerance.
Another, perhaps easier, method for making humans tolerant within 24 hours to the systemic effects of NTG is to administer nitroglycerin as nitropaste or as a transdermal patch for transdermal delivery, for instance, as follows: 1/2inch every 4 to 6 hours, while monitoring the blood pressure (to see when hypotension subsides from the applied nitropaste). As tolerated (e.g., in the absence of sudden drops in blood pressure), the dose of nitropaste is increased to up to 3 inches with each administration. Under these conditions, tolerance (as evidenced by no effect on systemic blood pressure) will develop in 18-24 hours or less. […]

O=[N+]([O-])OCC(CO[N+](=O)[O-])O[N+](=O)[O-] [NTG, 1,2,3-propanetriol trinitrate]
Effect on NMDA-evoked current ([1]; 50 μM NMDA + 1 μM glycine, -60 mV, DTT 2 mM, NTG 500 μM, DTNB 500 μM, 2 min exposure, washout, FIG. 4): attenuated; also recorded: inhibited the responses | Effect on amplitude of NMDA evoked current following alkylation with NEM ([1]; after 1-5 mM NEM): neither NTG nor DTNB significantly affected the amplitude of NMDA evoked current | Time to systemic tolerance, nitropaste or transdermal patch ([2]; no effect on systemic blood pressure, nitropaste dose escalated up to 3 inches, "will develop in 18-24 hours or less"): 18 to 24 h | Tolerance to undesired systemic effects ([2]; systemic effects e.g. blood pressure drop, coronary artery dilation or headache): patients can be made tolerant to the undesired systemic effects of NTG

From patent US5747545A, “Method of preventing NMDA receptor complex-mediated Neuronal damage” (priority 1995, dated 1998)
